Results as given in US20230145835A1, “Modulators of Alpha-4-beta-7 Integrin and MAdCAM” (48HD Biopharma Inc., priority 2021, published 2023).
Where two headings read alike, the source gives them in different places. Numbered stars: 1 amine (or outer) side, 2 acyl side, 3 side chain; on linkers, the order of the positions; unused ones are H or OH. Bridge positions count the residues as written; N and C are the ends. Square brackets hold non-standard residues; d marks the D form. Peptide text beside a SMILES is read from it. X3 = O=C(/C=N/OCCCCCCOc1cc(C[*:2])cc(C[*:3])c1)[*:1]; X1 = O=C(C=NOCCCCCCOc1cc(C[*:2])cc(C[*:3])c1)[*:1]; X5 = O=C(CCCCCCOc1cc(C[*:2])cc(C[*:3])c1)[*:1]; hSer = N[C@@H](CCO)C(=O)O; Nle = CCCC[C@H](N)C(=O)O

Target: T1, rh-integrin α4β7/LPAM-1 (Homo sapiens, UniProt P13612+P26010)
T1 sequence (P13612 34-977 limits assumed): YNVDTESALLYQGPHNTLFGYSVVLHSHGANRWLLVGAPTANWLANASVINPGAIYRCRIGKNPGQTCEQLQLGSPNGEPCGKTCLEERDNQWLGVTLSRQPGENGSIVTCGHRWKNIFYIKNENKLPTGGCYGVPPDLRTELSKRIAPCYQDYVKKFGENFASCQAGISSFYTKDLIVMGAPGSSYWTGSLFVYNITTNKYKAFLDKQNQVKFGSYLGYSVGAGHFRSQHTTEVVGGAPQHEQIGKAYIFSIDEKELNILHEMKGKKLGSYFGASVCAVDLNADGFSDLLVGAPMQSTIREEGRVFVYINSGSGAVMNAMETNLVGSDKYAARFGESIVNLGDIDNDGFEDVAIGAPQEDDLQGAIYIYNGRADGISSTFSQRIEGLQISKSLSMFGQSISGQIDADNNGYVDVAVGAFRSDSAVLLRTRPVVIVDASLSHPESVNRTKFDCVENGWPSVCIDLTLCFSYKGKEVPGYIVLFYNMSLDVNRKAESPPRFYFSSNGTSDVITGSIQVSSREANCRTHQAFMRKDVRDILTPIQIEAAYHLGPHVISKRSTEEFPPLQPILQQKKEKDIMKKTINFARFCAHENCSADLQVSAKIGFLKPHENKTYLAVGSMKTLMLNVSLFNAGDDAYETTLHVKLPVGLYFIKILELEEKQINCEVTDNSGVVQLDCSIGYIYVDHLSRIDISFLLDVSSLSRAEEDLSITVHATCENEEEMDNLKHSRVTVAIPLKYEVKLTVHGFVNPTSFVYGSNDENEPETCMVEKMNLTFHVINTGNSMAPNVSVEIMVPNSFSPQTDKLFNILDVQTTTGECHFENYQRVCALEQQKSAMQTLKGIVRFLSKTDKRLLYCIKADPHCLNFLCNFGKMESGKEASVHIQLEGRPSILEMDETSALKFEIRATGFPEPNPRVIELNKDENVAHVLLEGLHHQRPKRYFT
T1 sequence (P26010 20-723 limits assumed): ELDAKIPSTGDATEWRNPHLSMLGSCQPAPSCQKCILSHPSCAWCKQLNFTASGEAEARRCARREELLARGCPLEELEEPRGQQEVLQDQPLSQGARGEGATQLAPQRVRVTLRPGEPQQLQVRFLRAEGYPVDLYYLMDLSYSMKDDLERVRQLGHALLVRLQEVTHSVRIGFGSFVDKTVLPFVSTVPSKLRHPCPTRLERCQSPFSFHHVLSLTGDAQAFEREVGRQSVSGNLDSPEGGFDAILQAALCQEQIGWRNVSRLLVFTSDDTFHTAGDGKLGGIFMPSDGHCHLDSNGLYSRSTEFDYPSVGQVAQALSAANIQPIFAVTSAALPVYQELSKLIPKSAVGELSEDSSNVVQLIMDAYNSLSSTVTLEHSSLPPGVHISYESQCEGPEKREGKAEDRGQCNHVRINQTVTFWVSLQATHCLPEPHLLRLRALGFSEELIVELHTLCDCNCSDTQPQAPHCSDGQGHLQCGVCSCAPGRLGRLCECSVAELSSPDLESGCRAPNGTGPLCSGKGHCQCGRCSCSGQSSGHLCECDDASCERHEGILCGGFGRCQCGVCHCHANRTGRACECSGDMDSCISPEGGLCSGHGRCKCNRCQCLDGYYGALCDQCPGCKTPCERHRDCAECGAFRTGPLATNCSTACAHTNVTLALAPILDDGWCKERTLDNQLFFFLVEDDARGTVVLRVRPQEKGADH
Test: α4β7-MadCAM Competition ELISA (Example 4)
Assay type: binding
Conditions: read-out: IC50
Description: After washing with wash buffer, 200 μL assay buffer was added to each well and incubated for one hour at 28° C. After another wash with wash buffer, 100 μL of a MAdCAM and peptide mixture in assay buffer was added to each well and incubated for one hour at 28° C., followed by washing with wash buffer.

[1] = competition ELISA, 4 μg/mL α4β7 coated, MAdCAM and peptide mixture, 28° C.
[2] = Table 3 Representative compounds, inhibition of MAdCAM binding to coated α4β7

SMILES	IC50 [1] [nM]	IC50 [2] [nM]
CCCC[C@@H]1NC(=O)[C@@H]2CCCN2C(=O)[C@@H]2CSCc3cc(cc(c3)OCCCCCCON=CC(=O)N[C@@H](CCCNC(=N)N)C(=O)N2)CSC[C@@H](C(=O)O)NC(=O)[C@H](CCC(=O)O)NC(=O)CNC(=O)[C@H](C)NC(=O)[C@H](C(C)C)NC(=O)[C@H](CC(=O)O)NC1=O [SEQ ID NO: 138] (RCP[Nle]DVAGEC-OH; linker N-2-10 via X1)	261	
CCCC[C@@H]1NC(=O)[C@@H]2CCCN2C(=O)[C@@H]2CSCc3cc(cc(c3)OCCCCCCC(=O)NCC(=O)N[C@@H](CCCNC(=N)N)C(=O)N2)CSC[C@@H](C(=O)O)NC(=O)[C@H](CCC(=O)O)NC(=O)[C@H](CCC(N)=O)NC(=O)[C@H](Cc2c[nH]c3ccccc23)NC(=O)[C@H]([C@@H](C)CC)NC(=O)[C@H](CC(=O)O)NC1=O [SEQ ID NO: 147] (GRCP[Nle]DIWQEC-OH; linker N-3-11 via X5; C-terminus assumed)	75	
CC(C)C[C@@H]1NC(=O)[C@@H]2CCCN2C(=O)[C@@H](NC(=O)[C@H](CCCCN)NC(=O)[C@@H](N)CO)CSSC[C@@H](C(=O)O)NC(=O)[C@H](CCC(=O)O)NC(=O)[C@H](Cc2ccc(O)cc2)NC(=O)[C@@H]2CCCN2C(=O)[C@H]([C@@H](C)O)NC(=O)[C@H](CC(=O)O)NC1=O [SEQ ID NO: 152] (H-SKCPLDTPYEC-OH; disulfide 3-11; N-terminus and C-terminus assumed)	552	
CC(C)C[C@@H]1NC(=O)[C@H]([C@@H](C)O)NC(=O)[C@H](CC(=O)O)NC(=O)[C@H](CO)NC(=O)[C@H](CCCNC(=N)N)N(C)C(=O)c2ccccc2CSC(C)(C)[C@@H](C(=O)N[C@@H](Cc2c[nH]c3ccccc23)C(=O)N[C@H](CCC(=O)O)C(N)=O)NC1=O [compound 1]		3
CC(C)C[C@@H]1NC(=O)[C@H]([C@@H](C)O)NC(=O)[C@H](CC(=O)O)NC(=O)[C@H](CO)NC(=O)[C@H](CCCNC(=N)N)N(C)C(=O)CCSC[C@@H](C(=O)N[C@@H](Cc2c[nH]c3ccccc23)C(=O)N[C@@H](CCCCN)C(N)=O)NC1=O [compound 2]		33
CCCC[C@@H]1NC(=O)[C@@H]2CCCN2C(=O)[C@@H]2CSCc3cc(cc(c3)OCCCCCCO/N=C/C(=O)N[C@@H](CCCNC(=N)N)C(=O)N2)CSC[C@@H](C(N)=O)NC(=O)[C@H](CCC(=O)O)NC(=O)[C@H](CCC(N)=O)NC(=O)[C@H](Cc2c[nH]c3ccccc23)NC(=O)[C@H](C(C)C)NC(=O)[C@H](CC(=O)O)NC1=O [compound 3] (RCP[Nle]DVWQEC-NH2; linker N-2-10 via X3)		53
CCCC[C@@H]1NC(=O)[C@@H]2CCCN2C(=O)[C@@H]2CSCc3cc(cc(c3)OCCCCCCC(=O)NCC(=O)N[C@@H](CCCNC(=N)N)C(=O)N2)CSC[C@@H](C(N)=O)NC(=O)[C@H](CCC(=O)O)NC(=O)[C@H](CCC(N)=O)NC(=O)[C@H](Cc2c[nH]c3ccccc23)NC(=O)[C@H]([C@@H](C)CC)NC(=O)[C@H](CC(=O)O)NC1=O [compound 4] (GRCP[Nle]DIWQEC-NH2; linker N-3-11 via X5)		75
CC(=O)N[C@H]1CSSC[C@@H](C(N)=O)NC(=O)[C@H](CC(C)C)NC(=O)[C@H]([C@@H](C)O)NC(=O)[C@H](CC(=O)O)NC(=O)[C@H](CO)NC(=O)[C@H](CCCNC(=N)N)NC1=O [compound 5] (Ac-CRSDTLC-NH2; disulfide 1-7)		122
CCCC[C@@H]1NC(=O)[C@@H]2CCCN2C(=O)[C@@H]2CSCc3cc(cc(c3)OCCCCCCO/N=C/C(=O)N[C@@H](CCCNC(=N)N)C(=O)N2)CSC[C@@H](C(N)=O)NC(=O)[C@H](CCC(=O)O)NC(=O)[C@H](Cc2ccc(O)cc2)NC(=O)[C@H](Cc2c[nH]c3ccccc23)NC(=O)[C@H](C(C)C)NC(=O)[C@H](CC(=O)O)NC1=O [compound 6] (RCP[Nle]DVWYEC-NH2; linker N-2-10 via X3)		130
CC(=O)N[C@H]1CSSC[C@@H](C(=O)NCC(=O)N[C@@H](CCC(=O)O)C(N)=O)NC(=O)[C@H](CC(C)C)NC(=O)[C@H]([C@@H](C)O)NC(=O)[C@H](CC(=O)O)NC(=O)[C@H](CO)NC(=O)[C@H](CCCNC(=N)N)NC1=O [compound 7] (Ac-CRSDTLCGE-NH2; disulfide 1-7)		136
CC(C)C[C@@H]1NC(=O)[C@H]([C@@H](C)O)NC(=O)[C@H](CC(=O)O)NC(=O)[C@H](CO)NC(=O)[C@H](CCCNC(=N)N)NC(=O)[C@@H](N)CSSC[C@@H](C(N)=O)NC1=O [compound 8] (H-CRSDTLC-NH2; disulfide 1-7)		186
CCCC[C@@H]1NC(=O)[C@@H]2CCCN2C(=O)[C@@H]2CSCc3cc(cc(c3)OCCCCCCO/N=C/C(=O)N[C@@H](CCCNC(=N)N)C(=O)N2)CSC[C@@H](C(N)=O)NC(=O)[C@H](CCC(=O)O)NC(=O)[C@H](CCC(N)=O)NC(=O)[C@H](Cc2c[nH]c3ccccc23)NC(=O)[C@H]([C@@H](C)CC)NC(=O)[C@H](CC(=O)O)NC1=O [compound 9] (RCP[Nle]DIWQEC-NH2; linker N-2-10 via X3)		187
CC(C)C[C@@H]1NC(=O)[C@@H]2CCCN2C(=O)[C@@H]2CSCc3cc(cc(c3)OCCCCCCO/N=C/C(=O)N[C@@H](CCCCN)C(=O)N2)CSC[C@@H](C(N)=O)NC(=O)[C@H](CCC(=O)O)NC(=O)[C@H](Cc2ccc(O)cc2)NC(=O)[C@@H]2CCCN2C(=O)[C@H](C(C)C)NC(=O)[C@H](CC(=O)O)NC1=O [compound 10] (KCPLDVPYEC-NH2; linker N-2-10 via X3)		188
CC[C@H](C)[C@@H]1NC(=O)[C@H](CC(=O)O)NC(=O)[C@H](CC(C)C)NC(=O)[C@@H]2CCCN2C(=O)[C@@H]2CSCc3cc(cc(c3)OCCCCCCO/N=C/C(=O)N[C@@H](CCCCN)C(=O)N2)CSC[C@@H](C(N)=O)NC(=O)[C@H](CCC(=O)O)NC(=O)[C@H](Cc2ccc(O)cc2)NC(=O)[C@@H]2CCCN2C1=O [compound 11] (KCPLDIPYEC-NH2; linker N-2-10 via X3)		198
CCCC[C@@H]1NC(=O)[C@@H]2CCCN2C(=O)[C@@H]2CSCc3cc(cc(c3)OCCCCCCO/N=C/C(=O)N[C@@H](CCCNC(=N)N)C(=O)N2)CSC[C@@H](C(N)=O)NC(=O)[C@H](CCC(=O)O)NC(=O)[C@H](C)NC(=O)[C@H](C)NC(=O)[C@H]([C@@H](C)CC)NC(=O)[C@H](CC(=O)O)NC1=O [compound 12] (RCP[Nle]DIAAEC-NH2; linker N-2-10 via X3)		204
CC[C@H](C)[C@@H]1NC(=O)[C@H](CC(=O)O)NC(=O)[C@H](CCSC)NC(=O)[C@@H]2CCCN2C(=O)[C@@H]2CSCc3cc(cc(c3)OCCCCCCO/N=C/C(=O)N[C@@H](CCCNC(=N)N)C(=O)N2)CSC[C@@H](C(N)=O)NC(=O)[C@H](CCC(=O)O)NC(=O)CNC(=O)[C@H](C)NC1=O [compound 13] (RCPMDIAGEC-NH2; linker N-2-10 via X3)		227
CC[C@H](C)[C@@H]1NC(=O)[C@H](CC(=O)O)NC(=O)[C@H](CCOC)NC(=O)[C@@H]2CCCN2C(=O)[C@@H]2CSCc3cc(cc(c3)OCCCCCCO/N=C/C(=O)N[C@@H](CCCNC(=N)N)C(=O)N2)CSC[C@@H](C(N)=O)NC(=O)[C@H](CCC(=O)O)NC(=O)[C@H](CCC(N)=O)NC(=O)[C@H](Cc2c[nH]c3ccccc23)NC1=O [compound 14] (RCP[hSer](Me)DIWQEC-NH2; linker N-2-10 via X3)		260
CCCC[C@@H]1NC(=O)[C@@H]2CCCN2C(=O)[C@@H]2CSCc3cc(cc(c3)OCCCCCCO/N=C/C(=O)N[C@@H](CCCNC(=N)N)C(=O)N2)CSC[C@@H](C(N)=O)NC(=O)[C@H](CCC(=O)O)NC(=O)CNC(=O)[C@H](C)NC(=O)[C@H](C(C)C)NC(=O)[C@H](CC(=O)O)NC1=O [compound 15] (RCP[Nle]DVAGEC-NH2; linker N-2-10 via X3)		261
